What was measured:
[1] = target: Proto-oncogene tyrosine-protein kinase Src (c-Src); experiment: The kinase reaction was initiated with the incubation of the 2.5 µL of the reaction cocktail (0.7 nM of His6-Src kinase domain in kinase buffer) with 2.5 µL of prediluted compounds (dissolved in 10% DMSO, 4X target concentration) for 10 min at room temperature. The reaction cocktail contained 200 mM HEPES (pH 7.5), 16 mM MgC
[2] = target: T1, 3-phosphoinositide-dependent protein kinase 1 (Homo sapiens, UniProt O15530); experiment: EGFR, MAPK and PDK Inhibitory Acitivity Assay; settings: pH 7
T1 sequence (O15530 whole entry): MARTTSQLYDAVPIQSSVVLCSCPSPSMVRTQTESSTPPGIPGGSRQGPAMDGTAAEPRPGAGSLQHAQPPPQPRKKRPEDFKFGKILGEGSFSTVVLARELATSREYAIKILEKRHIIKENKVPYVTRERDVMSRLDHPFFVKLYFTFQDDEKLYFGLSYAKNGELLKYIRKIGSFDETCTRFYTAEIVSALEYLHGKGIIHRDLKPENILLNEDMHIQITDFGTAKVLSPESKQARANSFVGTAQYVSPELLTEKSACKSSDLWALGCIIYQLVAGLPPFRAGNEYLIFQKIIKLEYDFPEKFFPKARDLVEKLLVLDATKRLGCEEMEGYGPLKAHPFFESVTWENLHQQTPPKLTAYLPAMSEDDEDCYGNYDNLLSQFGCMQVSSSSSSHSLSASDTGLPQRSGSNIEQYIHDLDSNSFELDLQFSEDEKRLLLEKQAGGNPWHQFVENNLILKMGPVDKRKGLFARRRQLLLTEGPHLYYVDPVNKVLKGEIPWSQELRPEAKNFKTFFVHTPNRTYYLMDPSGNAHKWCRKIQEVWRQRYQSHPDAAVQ
Description: (§1) EGFR was incubated with 8 mM MOPS (pH 7.0), 0.2 mM EDTA, 10 mM MnCl2, 0.1 mg/mL poly(Glu, Tyr) 4:1. MAPK1 was incubated with 25 mM Tris (pH 7.5), 0.02 mM EGTA, 250 µM substrate peptide (MAPK1-peptide), whereas PDK1 was incubated with 50 mM Tris (pH 7.5), 100 µM […] (PDKtide). The incubation was followed by the addition of 10 mM magnesium acetate and gamma-P33-ATP to each kinase. The kinase reactions were initiated with the addition of Mg:ATP mixture and stopped after 40 min of incubation with the addition of 3% phosphoric acid solution.

[3] = target: T2, Epidermal growth factor receptor [1-973] (Homo sapiens, UniProt P00533); experiment: EGFR, MAPK and PDK Inhibitory Acitivity Assay; settings: pH 7
T2 construct: 1-973
T2 sequence (P00533 1-973): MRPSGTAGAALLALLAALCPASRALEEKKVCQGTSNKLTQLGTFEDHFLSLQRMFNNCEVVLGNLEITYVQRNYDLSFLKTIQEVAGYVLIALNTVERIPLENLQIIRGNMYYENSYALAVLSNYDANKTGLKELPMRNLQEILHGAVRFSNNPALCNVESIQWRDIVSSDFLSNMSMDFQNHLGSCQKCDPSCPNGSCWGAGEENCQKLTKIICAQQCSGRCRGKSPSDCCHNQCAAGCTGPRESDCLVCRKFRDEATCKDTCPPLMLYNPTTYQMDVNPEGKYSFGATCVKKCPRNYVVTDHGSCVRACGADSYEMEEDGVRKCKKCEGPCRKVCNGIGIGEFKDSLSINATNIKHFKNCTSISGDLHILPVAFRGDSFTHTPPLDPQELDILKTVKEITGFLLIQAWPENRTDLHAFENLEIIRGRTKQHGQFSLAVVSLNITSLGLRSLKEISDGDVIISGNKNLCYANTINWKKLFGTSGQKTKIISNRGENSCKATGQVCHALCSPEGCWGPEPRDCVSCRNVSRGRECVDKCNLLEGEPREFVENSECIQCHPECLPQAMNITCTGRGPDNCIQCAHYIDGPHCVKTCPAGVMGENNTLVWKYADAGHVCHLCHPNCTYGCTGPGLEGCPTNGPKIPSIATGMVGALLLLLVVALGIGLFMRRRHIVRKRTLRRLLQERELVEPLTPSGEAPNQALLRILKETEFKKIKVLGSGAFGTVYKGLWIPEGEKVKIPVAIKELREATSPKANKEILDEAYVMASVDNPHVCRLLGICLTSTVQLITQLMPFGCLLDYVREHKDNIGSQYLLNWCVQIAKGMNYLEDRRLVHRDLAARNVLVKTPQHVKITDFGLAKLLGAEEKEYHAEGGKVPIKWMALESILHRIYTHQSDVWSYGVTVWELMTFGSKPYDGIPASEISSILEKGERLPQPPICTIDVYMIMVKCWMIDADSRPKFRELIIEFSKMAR
Description: as §1

[4] = target: Mitogen-activated protein kinase 1 (Homo sapiens, UniProt P28482); experiment: EGFR, MAPK and PDK Inhibitory Acitivity Assay; settings: pH 7
Chain of Mitogen-activated protein kinase 1 (P28482 whole entry): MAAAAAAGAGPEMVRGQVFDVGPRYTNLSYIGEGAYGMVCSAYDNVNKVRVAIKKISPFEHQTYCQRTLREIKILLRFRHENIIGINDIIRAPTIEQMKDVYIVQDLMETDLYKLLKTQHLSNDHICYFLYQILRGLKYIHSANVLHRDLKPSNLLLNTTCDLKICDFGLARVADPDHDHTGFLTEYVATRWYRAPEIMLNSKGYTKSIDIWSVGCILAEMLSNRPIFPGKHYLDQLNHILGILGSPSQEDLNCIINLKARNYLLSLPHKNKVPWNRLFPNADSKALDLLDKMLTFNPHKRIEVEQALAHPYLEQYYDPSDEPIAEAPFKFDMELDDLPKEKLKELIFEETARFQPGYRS
Description: as §1

IC50 [1] | Compound | other results
57.8 µM | CC(C)(C)OC(=O)NCCn1cc(C(=O)c2ccc(O)cc2O)ccc1=O [t-Butyl [2-{5-(2,4-dihydroxybenzoyl)-2-oxopyridin-1(2H)-yl}ethyl]carbamate (33)] | 
20.1 µM | O=c1ccc(/C(=N\C2CCCCC2)c2ccccc2O)cn1C1CCCCC1 [(E)-1-Cyclohexyl-5-[(cyclohexylimino)(2-hydroxyphenyl)methyl]pyridin-2(1H)-one (45)] | 
47 µM | COc1ccc(C(=O)c2ccc(=O)n(C(C)C)c2)c(O)c1 [5-(2-Hydroxy-4-methoxybenzoyl)-1-isopropylpyridin-2(1H)-one (35)] | 
27.6 µM | COc1ccc(C(=O)c2ccc(=O)n(CCNC(=O)OC(C)(C)C)c2)c(O)c1 [t-Butyl [2-{5-(2-hydroxy-4-methoxybenzoyl)-2-oxopyridin-1(2H)-yl}ethyl]carbamate (37)] | 
37.9 µM | CC(C)/N=C(\c1ccc(=O)n(C(C)C)c1)c1ccccc1O [(E)-5-[(2-Hydroxyphenyl)(isopropylimino)methyl]-1-isopropylpyridin-2(1H)-one (44)] | 
21.9 µM | COc1ccc(O)c(C(=O)c2ccc(=O)n(CCNC(=O)OC(C)(C)C)c2)c1 [t-Butyl [2-{5-(2-hydroxy-5-methoxybenzoyl)-2-oxopyridin-1(2H)-yl}ethyl]carbamate (43)] | 
21.8 µM | CC(C)n1cc(C(=O)c2ccccc2O)ccc1=O [5-(2-Hydroxybenzoyl)-1-isopropylpyridin-2(1H)-one (29)] | 

Further lines, the molecule ahead of its results:

Compound | IC50 [1] | other results
CC(C)n1cc(C(=O)c2cc(O)ccc2O)ccc1=O [5-(2,5-Dihydroxybenzoyl)-1-isopropylpyridin-2(1H)-one (40)] | 26.1 µM | 
O=C(c1ccc(=O)n(C2CCCCC2)c1)c1ccccc1O [1-Cyclohexyl-5-(2-hydroxybenzoyl)pyridin-2(1H)-one (30)] | 25.4 µM | 
CCCCCCn1cc(C(=O)c2cc(OC)ccc2O)ccc1=O [1-Hexyl-5-(2-hydroxy-5-methoxybenzoyl)pyridin-2(1H)-one (41)] | 23.5 µM | 
CCCCCCn1cc(C(=O)c2ccccc2O)ccc1=O [1-Hexyl-5-(2-hydroxybenzoyl)pyridin-2(1H)-one (28)] | 28.1 µM | 
COc1ccc(C(=O)c2ccc(=O)n(CCN(C)C)c2)c(O)c1 [1-[2-(Dimethylamino)ethyl]-5-(2-hydroxy-4-methoxybenzoyl) pyridin-2(1H)-one (36)] | 12.5 µM | IC50 [2]: > 300 µM; IC50 [3]: > 300 µM; IC50 [4]: > 300 µM
CN(C)CCn1cc(C(=O)c2ccccc2O)ccc1=O [1-[2-(Dimethylamino)ethyl]-5-(2-hydroxybenzoyl)pyridin-2(1H)-one (31)] | 28.2 µM | 
COc1ccc(C(=O)c2ccc(=O)n(CCO)c2)c(O)c1 [5-(2-Hydroxy-4-methoxybenzoyl)-1-(2-hydroxyethyl)pyridin-2(1H)-one (38)] | 19.9 µM | 
CCCCCCn1cc(C(=O)c2ccc(O)cc2O)ccc1=O [5-(2,4-Dihydroxybenzoyl)-1-hexylpyridin-2(1H)-one (32)] | 27.7 µM | 
CCCCCCn1cc(C(=O)c2ccc(OC)cc2O)ccc1=O [1-Hexyl-5-(2-hydroxy-4-methoxybenzoyl)pyridin-2(1H)-one (34)] | 34.1 µM | 
COc1ccc(O)c(C(=O)c2ccc(=O)n(C3CCCCC3)c2)c1 [1-Cyclohexyl-5-(2-hydroxy-5-methoxybenzoyl)pyridin-2 (1H)-one (42)] | 24.8 µM | 
CCCCCCn1cc(C(=O)c2cc(O)ccc2O)ccc1=O [5-(2,5-Dihydroxybenzoyl)-1-hexylpyridin-2(1H)-one (39)] | 22.1 µM | 
